For test [1], the target named is T1, recombinant human A2A receptors (Homo sapiens, UniProt P29274).
T1 construct: expressed in transfected cells; host or cells: Sf9 insect cells, viral infection
Description: Radioligand binding to recombinant human A2A receptors in Sf9 cell membranes. The settings on record: recombinant human A2A receptor, 125I-APE or 125I-ZM241385, read-out: Binding Affinity A2A. The protocol: (§1) Sf9 cells were cultured in Grace's medium supplemented with 10% fetal bovine serum, 2.5 μg/ml amphotericin B and 50 μg/ml gentamycin in an atmosphere of 50% N2/50% O2. Viral infection was performed at a density of 2.5×10^6 cells/mL with a multiplicity of infection of two for each virus used. Infected cells were harvested 3 days post-infection and washed twice in insect PBS (PBS pH 6.3). Cells were then resuspended in lysis buffer (20 mM HEPES pH 7.5, 150 mM NaCl, 3 mM MgCl2, 1 mM β-mercaptoethanol (BME), 5 μg/mL leupeptin, 5 μg/mL pepstatin A, 1 μg/mL aprotinin, and 0.1 mM PMSF) and snap frozen for storage at −80° C. Cells were thawed on ice, brought to 30 mL total volume in lysis buffer, and burst by N2 cavitation (600 psi for 20 minutes). A low-speed centrifugation was performed to remove any unlysed cells (1000×g for 10 minutes), followed by a high-speed centrifugation (17,000×g for 30 minutes). The pellet from the final centrifugation was homogenized in buffer containing 20 mM HEPES pH 8, 100 mM NaCl, 1% glycerol, 2 μg/mL leupeptin, 2 μg/mL pepstatin A, 2 μg/mL Aprotinin, 0.1 mM PMSF, and 10 μM GDP using a small glass homogenizer followed by passage through a 26 gauge needle. Membranes were aliquoted, snap frozen in liquid N2, and stored at −80° C. Membranes from cells stably expressing the human A1 AR (CHO K1 cells) or A3 AR (HEK 293 cells) were prepared as described (Robeva et al., 1996).
(§2) Radioligand binding to recombinant human A2A receptors in Sf9 cell membranes was performed using either the radio labeled agonist, ^125I-APE (Luthin et al., 1995) or the radio labeled antagonist, ^125I-ZM241385 (^1251-ZM). To detect the high affinity, GTPγS-sensitive state of A1 and A3 AR, we used the agonist, ^125I-ABA (Linden et al., 1985;Linden et al., 1993). Binding experiments were performed in triplicate with 5 μg (A2A) or 25 μg (A1 and A3) membrane protein in a total volume of 0.1 mL HE buffer (20 mM HEPES and 1 mM EDTA) with 1 U/mL adenosine deaminase and 5 mM MgCl2 with or without 50 μM GTPγS. Membranes were incubated with radioligands at room temperature for three hours (for agonists) or two hours (for antagonists) in Millipore Multiscreen® 96-well GF/C filter plates and assays were terminated by rapid filtration on a cell harvester (Brandel, Gaithersburg, Md.) followed by 4×150 μl washes over 30 seconds with ice cold 10 mM Tris-HCl, pH 7.4, 10 mM MgCl2. Nonspecific binding was measured in the presence of 50 μM NECA. Competition binding assays were performed as described (Robeva et al., 1996) using 0.5-1 nM ^125I-APE, ^125I-ZM241385, or ^125I-ABA. […] The Ki values for competing compound binding to a single site were derived from IC50 values with correction for radioligand and competing compound depletion as described previously (Linden, 1982).

A further test has as its system human neutrophils. Description: Human neutrophil oxidative activity, luminol-enhanced chemiluminescence (TNF-primed, fMLP-stimulated). The settings on record: peak chemiluminescence. In kind it is cell-based. The text has this:
Chemiluminescence Methods: Luminol enhanced chemiluminescence, a measure of neutrophil oxidative activity, is dependent upon both superoxide production and mobilization of the granule enzyme myeloperoxidase. The light is emitted from unstable high-energy oxygen species such as hypochlorous acid and singlet oxygen generated by activated neutrophils.
Purified human neutrophils (2×10^6/ml) suspended in Hanks balanced salt solution containing 0.1% human serum albumin (HA), adenosine deaminase (1 U/mL) and rolipram (100 nM) were incubated (37° C.) in a water bath for 15 min with or without rhTNF(10 U/ml). Following incubation 100 µL aliquots of the PMN were transferred to wells (White walled clear bottom 96 well tissue culture plates Costar #3670; 2 wells/condition) containing […] and luminol (final concentration […]) with or without adenosine agonist (final agonist concentrations 0.01-1000 nM). The plate was incubated 5 min (37° C.) and then FMLP (501 in HA; final concentration […]) was added to all wells.
Peak chemiluminescence was determined with a Victor 1420 Multilabel Counter in the chemiluminescence mode using the Wallace Workstation software. Data are presented as peak chemiluminescence as percent of activity in the absence of an adenosine agonist. The EC50 was determined using PRISM software. All compounds were tested with PMNs from three separate donors.
Purified neutrophils (˜98% neutrophils and >95% viable by trypan blue exclusion) containing <1 platelet per 5 neutrophils and <50 pg/ml endotoxin (limulus amebocyte lysate assay) were obtained from normal heparinized (10 U/ml) venous blood by a one step Ficoll-hypaque separation procedure (A. Ferrante et al., J. Immunol. Meth., 36, 109 (1980)).
Luminol-enhanced chemiluminescence, a measure of neutrophil oxidative activity, is dependent upon both superoxide production and mobilization of the lysosomal granule enzyme myeloperoxidase. The light is emitted from unstable high-energy oxygen species generated by activated neutrophils. Purified neutrophils (5-10×10^5/ml) were incubated in Hanks balanced salt solution containing 0.1% human serum albumin (1 ml) with the tested A2A agonist with or without rolipram and with or without tumor necrosis factor-alpha (1 U/ml) for 30 minutes at 37° C. in a shaking water bath. Then luminol (1×10^−4 M) enhanced f-met-leu-phe (1 mcM) stimulated chemiluminescence was read with a Chronolog® Photometer (Crono-log Corp., Havertown, Pa.) at 37° C. for 2-4 minutes. Chemiluminescence is reported as relative peak light emitted (=height of the curve) compared to samples with tumor necrosis factor-alpha and without agonist or rolipram.

Another test addresses T2, human A1 AR (Homo sapiens, UniProt P30542).
T2 construct: expressed in transfected cells
T2 sequence (P30542 1-326): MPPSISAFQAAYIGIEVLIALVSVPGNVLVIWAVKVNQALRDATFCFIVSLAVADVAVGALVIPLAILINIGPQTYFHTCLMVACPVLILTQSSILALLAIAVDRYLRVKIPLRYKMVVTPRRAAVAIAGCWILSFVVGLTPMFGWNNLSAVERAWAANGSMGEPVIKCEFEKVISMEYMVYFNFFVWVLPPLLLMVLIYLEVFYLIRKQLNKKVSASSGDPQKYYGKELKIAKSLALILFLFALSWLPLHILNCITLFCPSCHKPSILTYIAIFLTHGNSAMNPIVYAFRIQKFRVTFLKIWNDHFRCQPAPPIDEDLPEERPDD
As to the kind of experiment: Radioligand binding (125I-ABA competition) to human A1 AR in CHO K1 cell membranes. The settings on record: read-out: Binding Affinity A1. The protocol:
as §1, §2

A further test has as its target T3, human A3 AR (Homo sapiens, UniProt P0DMS8).
T3 construct: expressed in transfected cells
T3 sequence (P0DMS8 1-318): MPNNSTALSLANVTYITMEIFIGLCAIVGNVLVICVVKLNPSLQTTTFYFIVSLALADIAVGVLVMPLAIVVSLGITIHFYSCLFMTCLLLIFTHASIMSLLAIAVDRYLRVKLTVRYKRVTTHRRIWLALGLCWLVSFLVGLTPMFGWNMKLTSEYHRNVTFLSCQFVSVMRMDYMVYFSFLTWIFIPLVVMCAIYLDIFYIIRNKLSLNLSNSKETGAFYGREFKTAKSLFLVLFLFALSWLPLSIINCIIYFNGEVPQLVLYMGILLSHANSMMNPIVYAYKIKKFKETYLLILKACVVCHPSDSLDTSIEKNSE
Description: Radioligand binding (125I-ABA competition) to human A3 AR in HEK 293 cell membranes. The settings on record: read-out: Binding Affinity A3. The protocol:
as §1, §2

Setting [2] is: human neutrophil experiment with Rolipram, read-out: Functional + Roli.
Setting [3] is: human neutrophil experiment without Rolipram, read-out: Functional.

Like-named read-outs stand apart in the source and are kept apart here.

T1 sequence (P29274 whole entry): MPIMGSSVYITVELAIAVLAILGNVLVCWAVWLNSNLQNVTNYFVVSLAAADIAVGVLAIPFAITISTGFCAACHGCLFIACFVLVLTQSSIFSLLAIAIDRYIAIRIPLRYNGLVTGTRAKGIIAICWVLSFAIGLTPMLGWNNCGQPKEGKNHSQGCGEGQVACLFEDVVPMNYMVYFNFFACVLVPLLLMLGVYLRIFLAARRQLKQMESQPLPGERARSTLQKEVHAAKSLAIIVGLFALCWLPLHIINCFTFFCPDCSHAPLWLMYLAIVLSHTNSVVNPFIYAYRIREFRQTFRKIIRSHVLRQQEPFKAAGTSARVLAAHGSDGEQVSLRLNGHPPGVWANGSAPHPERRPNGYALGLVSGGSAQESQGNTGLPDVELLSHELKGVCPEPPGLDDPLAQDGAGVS

Regarding `CCNC(=O)[C@H]1O[C@@H](n2cnc3c(N)nc(C#CC4(O)CC5CCC4C5)nc32)C(O)C1O` (single isomer, unassigned) [Example 1, 5-[6-Amino-2-(2-hydroxy-bicyclo[2.2.1]hept-2-ylethynyl)-purin-9-yl]-3,4-dihydroxy-tetrahydro-furan-2-carboxylic acid ethylamide], the Ki in test [1] amounted to 0.2 nM; at human A1 AR, 31 nM; at human A3 AR it was 10 nM. For the same molecule, the EC50 was 0.22 nM with human neutrophils (setting [2]) and 3.1 nM in the test on human neutrophils (setting [3]).
`CCNC(=O)[C@H]1O[C@@H](n2cnc3c(N)nc(C#CC4(O)CC5CCC4C5)nc32)C(O)C1O` (single isomer, unassigned) [Example 2, 5-[6-Amino-2-(2-hydroxy-bicyclo[2.2.1]hept-2-ylethynyl)-purin-9-yl]-3,4-dihydroxy-tetrahydro-furan-2-carboxylic acid ethylamide]: the Ki was found to be 0.3 nM in test [1], 11 nM on human A1 AR and 3 nM at human A3 AR. Also, the EC50 stood at 0.058 nM in the test with human neutrophils (setting [2]) and 0.5 nM in the test on human neutrophils (setting [3]).
For `CCNC(=O)[C@H]1O[C@@H](n2cnc3c(N)nc(C#CC4(O)C5CC6CC(C5)CC4C6)nc32)C(O)C1O` (stereo in doubt) [Example 3, 5-[6-Amino-2-(2-hydroxy-adamantan-2-ylethynyl)-purin-9-yl]-3,4-dihydroxy-tetrahydro-furan-2-carboxylic acid ethylamide], the results for the Ki (in test [1]; at human A1 AR; on human A3 AR) were 0.2 nM, 75 nM and 4 nM, respectively. Also, the EC50 in the test with human neutrophils (Homo sapiens, Neutrophil, human neutrophil experiment with Rolipram, read-out: Functional + Roli) was found to be 0.22 nM; in the test on human neutrophils (Homo sapiens, Neutrophil, human neutrophil experiment without Rolipram, read-out: Functional), 3.8 nM.
Consider `CCNC(=O)[C@H]1O[C@@H](n2cnc3c(N)nc(C#CC4(O)CCCC5CCCCC54)nc32)C(O)C1O` (stereo in doubt) [Example 4, 5-[6-Amino-2-(1-hydroxy-decahydro-naphthalen-1-ylethynyl)-purin-9-yl]-3,4-dihydroxy-tetrahydro-furan-2-carboxylic acid ethylamide], for which the values for the Ki (in test [1]; at human A1 AR; on human A3 AR) were 6.4 nM, 7.3 nM and 28.3 nM, respectively. Besides, the results for the EC50 in the test with human neutrophils (setting [2]) and in the test on human neutrophils (setting [3]) were 3.7 nM and 25 nM, respectively.
On to `CCNC(=O)[C@H]1O[C@@H](n2cnc3c(N)nc(C#CC4(O)CCCC5CCCCC54)nc32)C(O)C1O` (stereo in doubt) [Example 5, 5-[6-Amino-2-(1-hydroxy-decahydro-naphthalen-1-ylethynyl)-purin-9-yl]-3,4-dihydroxy-tetrahydro-furan-2-carboxylic acid ethylamide], for which the Ki in test [1] amounted to 0.7 nM; on human A1 AR, 2.6 nM; at human A3 AR it was 4.9 nM. Besides, the EC50 in the test on human neutrophils (setting [2]) stood at 0.28 nM; in the test on human neutrophils (setting [3]), 2.5 nM.
As for `Nc1nc(C#CC2(O)C3CC4CC(C3)CC2C4)nc2c1ncn2[C@@H]1O[C@H](CO)C(O)C1O` (stereo in doubt) [Example 6, 2-[6-Amino-2-(2-hydroxy-adamantan-2-ylethynyl)-purin-9-yl]-5-hydroxymethyl-tetrahydro-furan-3,4-diol], the Ki was found to be 0.6 nM in test [1], 28.5 nM on human A1 AR and 2.9 nM at human A3 AR. The results for the EC50 in the test on human neutrophils (setting [2]) and with human neutrophils (setting [3]) were 0.3 nM and 4.9 nM, respectively.

Source of the values: patent publication US7442687B2, “2-polycyclic propynyl adenosine analogs having A2A agonist activity” (The University of Virginia Patent Foundation, priority 2004, dated 2008).
